Test results reported in PubChem BioAssay AID1963971 (Molecular Pharmacology Branch, DTP, NCI, 2024).

Test system: 953936-095-R-J2-PDC spheroids with HUVEC/MSC, viability
Assay: Anticancer human tumor 953936-095-R-J2-PDC patient-derived cervical squamous cell carcinoma cell line growth inhibition [PI3K]
Conditions: for IC50: curve of first compound; for viability, T/C: stronger effect = lower value; active = viability on the fitted dose curve at most 10% of control; inactive = the rest
Outline: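 Tumor cells grown as multi-cell spheroids with HUVEC endothelial cells and MSC fibroblast-like stroma were treated with targeted agents combined with inavolisib, alpelisib, duvelisib or copanlisib. Doses fell in half-log steps from near clinical Cmax, else from 10 microM. Viability was measured.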

[1] = second compound 0.0316 µM, first compound 0.0316 µM
[2] = second compound 0.0316 µM, first compound 0.1 µM
[3] = second compound 0.0316 µM, first compound 0.316 µM
[4] = second compound 0.0316 µM, first compound 1 µM
[5] = second compound 0.0316 µM, first compound 3.16 µM
[6] = second compound 0.0316 µM, first compound 10 µM
[7] = second compound 0.1 µM, first compound 0.0316 µM
[8] = second compound 0.1 µM, first compound 0.1 µM
[9] = second compound 0.1 µM, first compound 0.316 µM
[10] = second compound 0.1 µM, first compound 1 µM
[11] = second compound 0.1 µM, first compound 3.16 µM
[12] = second compound 0.1 µM, first compound 10 µM
[13] = second compound 0.316 µM, first compound 0.0316 µM
[14] = second compound 0.316 µM, first compound 0.1 µM
[15] = second compound 0.316 µM, first compound 0.316 µM
[16] = second compound 0.316 µM, first compound 1 µM
[17] = second compound 0.316 µM, first compound 3.16 µM
[18] = second compound 0.316 µM, first compound 10 µM
[19] = second compound 1 µM, first compound 0.0316 µM
[20] = second compound 1 µM, first compound 0.1 µM
[21] = second compound 1 µM, first compound 0.316 µM
[22] = second compound 1 µM, first compound 1 µM
[23] = second compound 1 µM, first compound 3.16 µM
[24] = second compound 1 µM, first compound 10 µM
[25] = second compound 3.16 µM, first compound 0.0316 µM
[26] = second compound 3.16 µM, first compound 0.1 µM
[27] = second compound 3.16 µM, first compound 0.316 µM
[28] = second compound 3.16 µM, first compound 1 µM
[29] = second compound 3.16 µM, first compound 3.16 µM
[30] = second compound 3.16 µM, first compound 10 µM
[31] = second compound 10 µM, first compound 0.0316 µM
[32] = second compound 10 µM, first compound 0.1 µM
[33] = second compound 10 µM, first compound 0.316 µM
[34] = second compound 10 µM, first compound 1 µM
[35] = second compound 10 µM, first compound 3.16 µM
[36] = second compound 10 µM, first compound 10 µM
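Also: spheroids exposed to compounds for seven days before read-out.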

C#Cc1c(F)ccc2cc(O)cc(-c3ncc4c(N5CC6CCC(C5)N6)nc(OCC56CCCN5CC(F)C6)nc4c3F)c12 (centres undefined) + Cc1nc(NC(=O)N2CCCC2C(N)=O)sc1-c1ccnc(C(C)(C)C(F)(F)F)c1
< 31.6 nM: IC50 (second compound 1 µM) | IC50 (second compound 3.16 µM) | IC50 (second compound 10 µM)
> 10000 nM: IC50 (second compound 0.0316 µM) | IC50 (second compound 0.1 µM)
active: viability, T/C [32] 10% | viability, T/C [33] 8.35% | viability, T/C [34] 7.39% | viability, T/C [35] 6.74% | viability, T/C [36] 4.92%
inactive: viability, T/C [1] 97.6% | viability, T/C [2] 102% | viability, T/C [3] 92.3% | viability, T/C [4] 82.2% | viability, T/C [5] 71.3% | viability, T/C [6] 67.9% | viability, T/C [7] 79.7% | viability, T/C [8] 81.7% | viability, T/C [9] 92.8% | viability, T/C [10] 74.6% | viability, T/C [11] 61.9% | viability, T/C [12] 51.9% | viability, T/C [13] 64.7% | viability, T/C [14] 59.1% | viability, T/C [15] 57% | viability, T/C [16] 49.4% | viability, T/C [17] 48.9% | viability, T/C [18] 38.2% | viability, T/C [19] 43.8% | viability, T/C [20] 42.3% | viability, T/C [21] 39% | viability, T/C [22] 34.7% | viability, T/C [23] 28.3% | viability, T/C [24] 21.6% | viability, T/C [25] 25.2% | viability, T/C [26] 23.8% | viability, T/C [27] 22.5% | viability, T/C [28] 17.2% | viability, T/C [29] 12.3% | viability, T/C [30] 10.1% | viability, T/C [31] 10.3%
1350 nM: IC50 (second compound 0.316 µM)

CC1(C)CCC(Nc2ncc(C(F)(F)F)c(-c3c[nH]c4c(P(C)(C)=O)c(C#N)ccc34)n2)CN1 (centres undefined) + Cc1nc(NC(=O)N2CCCC2C(N)=O)sc1-c1ccnc(C(C)(C)C(F)(F)F)c1
31.6 nM: IC50 (second compound 0.0316 µM) | IC50 (second compound 0.1 µM)
< 31.6 nM: IC50 (second compound 0.316 µM) | IC50 (second compound 1 µM) | IC50 (second compound 3.16 µM) | IC50 (second compound 10 µM)
active: viability, T/C [6] 8.23% | viability, T/C [12] 5.8% | viability, T/C [18] 3.36% | viability, T/C [30] 0.46% | viability, T/C [33] 10.7% | viability, T/C [34] 10.3% | viability, T/C [35] 5.73% | viability, T/C [36] 0.31%
inactive: viability, T/C [1] 45.1% | viability, T/C [2] 50% | viability, T/C [3] 46.5% | viability, T/C [4] 52.4% | viability, T/C [5] 55.8% | viability, T/C [7] 45.9% | viability, T/C [8] 39.1% | viability, T/C [9] 42.2% | viability, T/C [10] 42.6% | viability, T/C [11] 54.3% | viability, T/C [13] 38.9% | viability, T/C [14] 37.8% | viability, T/C [15] 40.8% | viability, T/C [16] 38.9% | viability, T/C [17] 38.3% | viability, T/C [19] 30.8% | viability, T/C [20] 27.1% | viability, T/C [21] 26% | viability, T/C [22] 28.1% | viability, T/C [23] 33.4% | viability, T/C [24] 1.62% | viability, T/C [25] 18.2% | viability, T/C [26] 19.4% | viability, T/C [27] 17.2% | viability, T/C [28] 20.1% | viability, T/C [29] 13.8% | viability, T/C [31] 9.15% | viability, T/C [32] 9.91%
